Data on 3 compounds can be found in EP0655506B1 (priority 1994, dated 1995).

Like-named read-outs stand apart in the source and are kept apart here.

Experiment [1] addresses T1, E. coli DNA polymerase I (Klenow fragment) (Escherichia coli, UniProt P00582).
T1 construct: manganese reduces the discrimination of Klenow fragment against ddATP from 550 to 3.9 fold
As to conditions: cited from earlier work.

Experiment [2] concerns the target T2, E. coli DNA polymerase I mutant Pol I C-K1, R D N A K T F I Y G F L Y G (Escherichia coli, UniProt P00582, A759T/F762Y/I760F/I765L/L764F/N761I/R755D/S756N).
T2 construct: the large fragment of E. coli DNA polymerase I (Klenow fragment); made in house; crude lysate, renatured in gel
Kind of experiment: SDS activity gel analysis, incorporation of ddNMP relative to dNMP (Example 2). It is filed as biochemical. As to conditions: renatured enzyme in gel; 1.5 µM 4dNTPs with or without 30 µM ddTTP; 37 °C 4 hr. How it is done:
(§1) Mutant DNA polymerases are screened for their ability to incorporate dideoxynucleotides by SDS activity gel analysis. The procedure is a modification of that described by Spanos and Hübscher 91 Methods in Enzymology 263, 1983 and Karawya et al. 135 Analytical Biochemistry 318, 1983. Briefly, 10 ml of cells are induced for 4 to 6 hours and then pelleted. The cell pellet is resuspended in 0.3 ml 25 mM Tris HCl, pH 7.0, 5 mM EDTA. 20 µl of the resuspended cells are mixed with 40 µl of a solution of 1% SDS (sodium dodecyl sulfate), 2% mercaptoethanol, 30 % glycerol, 0.04% bromphenol blue, and 100 mM TrisHCl, pH 6.8. The mixtures are incubated at 37 °C for 5 min, and then 20 µl aliquots are loaded in duplicate onto two SDS polyacrylamide gels. The SDS polyacrylamide gels consist of a resolving gel that contains 8% polyacrylamide, 0.27% bisacrylamide, 190 mM TrisHCl, pH 8.8, 0.05% SDS, and 25 µg/ml denatured salmon sperm DNA, and a stacking gel that consists of 5% polyacrylamide, 0.17% bisacrylamide, 150 mM TrisHCl, pH 6.8, and 0.1% SDS. The two gels are electrophoresed at 100 V for 13 hr at a constant temperature of 13 °C in an electrophoresis buffer consisting of 190 mM TrisHCl and pH 8.8, 0.05% SDS.
(§2) After electrophoresis, the gels are washed over 8 hr in 4 changes of 500 ml each of Renaturation Buffer (50 mM Tris.HCl, pH 7.5, 5 mM magnesium acetate, 1 mM dithiothreitol, 40 mM KCI, 400 µg/ml bovine serum albumin, 16% glycerol and 0.95 mM EDTA) at 4 °C.
(§3) The renatured proteins are assayed for DNA polymerase activity by incubating each of the two gels in 6 ml of Renaturation Buffer, 1.5 µM 4dNTPs, 4 µl of [a-^32P]dATP (800 Ci/mmol, 10 mCi/ml), and 80 µg of purified thioredoxin. One of the mixtures also contains 30 µM ddTTP (a 20-fold molar excess over dTTP). The mixtures are incubated for 4 hr at 37 °C (70 °C for 2 hr for thermophilic DNA polymerases).
(§4) After incubation the gels are washed for 8 hr against four changes of 5% trichloracetic acid and 1% sodium pyrophosphate. The gels are then dried and autoradiographed.
(§5) To determine whether a mutant DNA polymerase is discriminating more or less against ddTTP, the intensities of the radioactive bands are compared on the two gels that were incubated in the presence and absence of ddTTP, and the ratio of the signal in the two bands for the unmodified DNA polymerase is compared with the ratio of the signal in the two bands for each of the mutants.

Experiment [3] concerns the target T3, E. coli DNA polymerase I mutant Pol I C-K2, R R S A K T F I Y G L I Y G (Escherichia coli, UniProt P00582, A759T/F762Y/I760F/N761I).
T3 construct: the large fragment of E. coli DNA polymerase I (Klenow fragment); made in house; crude lysate, renatured in gel
Described as above. The format is biochemical. As to conditions: renatured enzyme in gel; 1.5 µM 4dNTPs with or without 30 µM ddTTP; 37 °C 4 hr. The protocol: as §1, §2, §3, §4, §5

For experiment [4], the target named is T4, E. coli DNA polymerase I mutant Pol I C-K3, R R S A K T F N F G L I Y G (Escherichia coli, UniProt P00582, A759T/I760F).
T4 construct: the large fragment of E. coli DNA polymerase I (Klenow fragment); made in house; crude lysate, renatured in gel
T4 sequence (P00582 324-928 A759T/I760F): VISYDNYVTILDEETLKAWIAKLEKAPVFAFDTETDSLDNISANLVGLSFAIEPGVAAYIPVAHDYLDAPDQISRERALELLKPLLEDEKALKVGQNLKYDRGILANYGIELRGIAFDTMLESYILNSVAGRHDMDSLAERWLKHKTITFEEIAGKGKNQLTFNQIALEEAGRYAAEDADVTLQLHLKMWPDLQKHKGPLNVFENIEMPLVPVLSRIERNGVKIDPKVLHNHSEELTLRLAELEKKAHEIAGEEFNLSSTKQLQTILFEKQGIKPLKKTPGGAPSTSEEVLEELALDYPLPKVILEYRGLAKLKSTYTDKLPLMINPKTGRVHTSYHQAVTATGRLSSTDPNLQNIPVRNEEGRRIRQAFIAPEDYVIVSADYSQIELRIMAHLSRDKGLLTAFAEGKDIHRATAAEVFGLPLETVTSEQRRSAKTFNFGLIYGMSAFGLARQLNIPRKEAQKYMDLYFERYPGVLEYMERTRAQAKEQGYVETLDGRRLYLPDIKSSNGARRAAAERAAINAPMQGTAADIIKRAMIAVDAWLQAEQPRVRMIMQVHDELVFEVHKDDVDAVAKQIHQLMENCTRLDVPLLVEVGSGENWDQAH
Described as above. The format is biochemical. As to conditions: renatured enzyme in gel; 1.5 µM 4dNTPs with or without 30 µM ddTTP; 37 °C 4 hr. The protocol: as §1, §2, §3, §4, §5

Experiment [5] concerns the target T5, E. coli DNA polymerase I mutant Pol I C-K4, R R S A K A I I Y G L I Y G (Escherichia coli, UniProt P00582, F762Y/N761I).
T5 construct: the large fragment of E. coli DNA polymerase I (Klenow fragment); made in house; crude lysate, renatured in gel
The experiment is described as above. It is filed as biochemical. To be noted: renatured enzyme in gel; 1.5 µM 4dNTPs with or without 30 µM ddTTP; 37 °C 4 hr. How it is done: as §1, §2, §3, §4, §5

Experiment [6] has as its target T6, E. coli DNA polymerase I mutant Pol I C-K5, R R S A K A I I F G L I Y G (Escherichia coli, UniProt P00582, N761I).
T6 construct: the large fragment of E. coli DNA polymerase I (Klenow fragment); made in house; crude lysate, renatured in gel
The description is as above. It is filed as biochemical. To be noted: renatured enzyme in gel; 1.5 µM 4dNTPs with or without 30 µM ddTTP; 37 °C 4 hr. The protocol:
as §1, §2, §3, §4, §5

The target of experiment [7] is T7, E. coli DNA polymerase I, wild type (Pol I WT), R R S A K A I N F G L I Y G (Escherichia coli, UniProt P00582).
T7 construct: the large fragment of E. coli DNA polymerase I (Klenow fragment); made in house; crude lysate, renatured in gel
T7 sequence (P00582 324-928): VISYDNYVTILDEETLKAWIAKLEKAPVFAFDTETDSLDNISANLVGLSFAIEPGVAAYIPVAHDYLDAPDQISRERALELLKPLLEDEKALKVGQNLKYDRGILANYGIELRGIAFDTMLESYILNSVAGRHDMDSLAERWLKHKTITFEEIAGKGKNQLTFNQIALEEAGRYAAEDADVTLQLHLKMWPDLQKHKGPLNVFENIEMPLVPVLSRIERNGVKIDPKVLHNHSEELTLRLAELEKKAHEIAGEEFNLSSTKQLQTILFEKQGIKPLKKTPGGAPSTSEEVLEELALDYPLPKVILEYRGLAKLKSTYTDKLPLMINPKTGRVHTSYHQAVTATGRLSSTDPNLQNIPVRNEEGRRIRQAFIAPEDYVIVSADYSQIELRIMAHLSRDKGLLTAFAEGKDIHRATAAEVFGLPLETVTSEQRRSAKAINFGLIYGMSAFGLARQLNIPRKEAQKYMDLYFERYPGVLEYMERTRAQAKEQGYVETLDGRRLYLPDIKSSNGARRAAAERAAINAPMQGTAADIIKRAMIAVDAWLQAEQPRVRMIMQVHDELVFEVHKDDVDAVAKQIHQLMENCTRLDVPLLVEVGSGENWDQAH
The experiment is described as above. The format is biochemical. The protocol:
as §1, §2, §3, §4, §5

Experiment [8] has as its target T8, Taq DNA polymerase mutant Taq C-Q1, R D N A K T I N F G V L Y G (Thermus aquaticus, UniProt P19821, A661N/R660D).
T8 construct: the large fragment of Taq DNA polymerase (KlenTaq or _Taq DNA polymerase); made in house; crude lysate, renatured in gel
The experiment is described as above. To be noted: renatured enzyme in gel; 1.5 µM 4dNTPs with or without 30 µM ddTTP; 70 °C 2 hr. The format is biochemical. How it is done:
as §1, §2, §3, §4, §5

Experiment [9] addresses T9, Taq DNA polymerase mutant Taq C-Q2, R R A A K T F I Y G F L Y G (Thermus aquaticus, UniProt P19821, F667Y/I665F/N666I/V669F).
T9 construct: the large fragment of Taq DNA polymerase (KlenTaq or _Taq DNA polymerase); made in house; crude lysate, renatured in gel
The description is as above. It is filed as biochemical. To be noted: renatured enzyme in gel; 1.5 µM 4dNTPs with or without 30 µM ddTTP; 70 °C 2 hr. How it is done: as §1, §2, §3, §4, §5

Experiment [10] deals with T10, Taq DNA polymerase mutant Taq C-Q3, R R A A K T I I Y G V L Y G (Thermus aquaticus, UniProt P19821, F667Y/N666I).
T10 construct: the large fragment of Taq DNA polymerase (KlenTaq or _Taq DNA polymerase); made in house; crude lysate, renatured in gel
T10 sequence (P19821 236-832 N666I/F667Y): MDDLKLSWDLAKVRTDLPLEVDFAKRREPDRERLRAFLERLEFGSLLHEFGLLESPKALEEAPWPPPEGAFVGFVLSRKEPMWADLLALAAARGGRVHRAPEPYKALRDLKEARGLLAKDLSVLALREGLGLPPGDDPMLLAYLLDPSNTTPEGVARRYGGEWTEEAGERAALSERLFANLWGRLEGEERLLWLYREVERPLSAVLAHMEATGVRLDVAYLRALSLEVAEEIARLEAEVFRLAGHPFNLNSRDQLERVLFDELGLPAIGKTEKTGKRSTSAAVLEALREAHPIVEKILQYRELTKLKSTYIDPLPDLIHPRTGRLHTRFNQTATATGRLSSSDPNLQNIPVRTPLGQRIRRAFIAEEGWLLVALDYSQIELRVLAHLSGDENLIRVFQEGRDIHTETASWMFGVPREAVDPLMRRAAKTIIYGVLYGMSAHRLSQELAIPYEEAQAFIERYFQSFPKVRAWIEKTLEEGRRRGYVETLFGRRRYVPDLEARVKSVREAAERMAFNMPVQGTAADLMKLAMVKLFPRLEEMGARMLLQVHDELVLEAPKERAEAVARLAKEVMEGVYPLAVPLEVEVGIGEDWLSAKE
The experiment is described as above. The format is biochemical. To be noted: renatured enzyme in gel; 1.5 µM 4dNTPs with or without 30 µM ddTTP; 70 °C 2 hr. How it is done:
as §1, §2, §3, §4, §5

Experiment [11] addresses T11, Taq DNA polymerase, wild type (Taq WT), R R A A K T I N F G V L Y G (Thermus aquaticus, UniProt P19821).
T11 construct: the large fragment of Taq DNA polymerase (KlenTaq or _Taq DNA polymerase); made in house; crude lysate, renatured in gel
The experiment is described as above. The format is biochemical. As to conditions: renatured enzyme in gel; 1.5 µM 4dNTPs with or without 30 µM ddTTP; 70 °C 2 hr. How it is done: as §1, §2, §3, §4, §5

The target in experiment [12] is T12, HIV reverse transcriptase, change of Glu 89 to Glycine (Human immunodeficiency virus type 1 group M subtype B, UniProt P04585, E676G).
T12 construct: glu-89 of human immunodeficiency virus type 1 reverse transcriptase
As to conditions: relative to the unmutated enzyme; cited from earlier work.

T1 sequence (P00582 324-928): as the sequence (P00582 324-928) above
T3 sequence (P00582 324-928 A759T/I760F/N761I/F762Y): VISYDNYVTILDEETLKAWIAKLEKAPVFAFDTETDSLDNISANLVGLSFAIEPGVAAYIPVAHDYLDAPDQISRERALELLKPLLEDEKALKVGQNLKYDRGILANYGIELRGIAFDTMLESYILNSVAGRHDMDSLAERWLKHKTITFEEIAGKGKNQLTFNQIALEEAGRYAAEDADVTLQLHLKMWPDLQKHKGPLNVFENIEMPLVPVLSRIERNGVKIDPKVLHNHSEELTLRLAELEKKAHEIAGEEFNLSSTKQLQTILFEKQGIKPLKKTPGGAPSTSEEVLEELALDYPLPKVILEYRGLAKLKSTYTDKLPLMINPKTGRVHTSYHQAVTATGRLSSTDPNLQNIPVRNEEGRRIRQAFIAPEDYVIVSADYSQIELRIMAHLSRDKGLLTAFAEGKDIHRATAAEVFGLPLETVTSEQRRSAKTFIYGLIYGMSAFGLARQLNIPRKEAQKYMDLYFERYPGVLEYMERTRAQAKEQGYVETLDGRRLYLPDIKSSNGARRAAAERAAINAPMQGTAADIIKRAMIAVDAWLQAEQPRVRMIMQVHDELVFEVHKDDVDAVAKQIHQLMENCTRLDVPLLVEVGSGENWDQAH
T5 sequence (P00582 324-928 N761I/F762Y): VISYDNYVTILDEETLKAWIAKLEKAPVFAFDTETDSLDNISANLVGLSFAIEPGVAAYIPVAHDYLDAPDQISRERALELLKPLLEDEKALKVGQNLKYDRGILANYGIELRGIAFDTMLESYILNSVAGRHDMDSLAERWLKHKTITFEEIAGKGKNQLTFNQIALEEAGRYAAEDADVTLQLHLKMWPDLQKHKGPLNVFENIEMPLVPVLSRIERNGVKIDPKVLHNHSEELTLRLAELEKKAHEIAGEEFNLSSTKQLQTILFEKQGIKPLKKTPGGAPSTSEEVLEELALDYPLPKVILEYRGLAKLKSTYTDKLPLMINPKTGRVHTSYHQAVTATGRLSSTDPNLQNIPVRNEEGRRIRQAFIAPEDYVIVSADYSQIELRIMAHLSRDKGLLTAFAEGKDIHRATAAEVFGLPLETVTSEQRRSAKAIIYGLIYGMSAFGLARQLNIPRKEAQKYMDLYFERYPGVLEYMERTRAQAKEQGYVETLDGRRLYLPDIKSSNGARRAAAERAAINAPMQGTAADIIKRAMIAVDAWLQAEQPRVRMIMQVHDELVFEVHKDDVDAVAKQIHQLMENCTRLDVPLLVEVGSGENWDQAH
T6 sequence (P00582 324-928 N761I): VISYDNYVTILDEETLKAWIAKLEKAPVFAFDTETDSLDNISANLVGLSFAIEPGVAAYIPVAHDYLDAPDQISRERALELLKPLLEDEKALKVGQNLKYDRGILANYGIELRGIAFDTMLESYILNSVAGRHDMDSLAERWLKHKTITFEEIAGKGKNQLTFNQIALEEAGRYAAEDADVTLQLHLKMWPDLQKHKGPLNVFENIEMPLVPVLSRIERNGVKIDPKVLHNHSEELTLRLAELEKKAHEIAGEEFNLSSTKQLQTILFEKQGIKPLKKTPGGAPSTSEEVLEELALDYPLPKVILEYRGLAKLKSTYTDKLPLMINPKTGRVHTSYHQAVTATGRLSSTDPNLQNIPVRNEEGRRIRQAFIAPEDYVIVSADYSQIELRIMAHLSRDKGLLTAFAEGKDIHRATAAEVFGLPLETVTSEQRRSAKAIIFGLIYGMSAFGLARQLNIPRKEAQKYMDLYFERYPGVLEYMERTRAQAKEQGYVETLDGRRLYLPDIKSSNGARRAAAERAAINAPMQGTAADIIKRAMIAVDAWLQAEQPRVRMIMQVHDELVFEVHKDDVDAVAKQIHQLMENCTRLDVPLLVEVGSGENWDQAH
T11 sequence (P19821 236-832 limits assumed): as the sequence (P19821 236-832 N666I/F667Y) above, with I431N, Y432F counted along it
T9 sequence (P19821 236-832 I665F/N666I/F667Y/V669F): as the sequence (P19821 236-832 N666I/F667Y) above, with I430F, V434F counted along it
T8 sequence (P19821 236-832 R660D/A661N): as the sequence (P19821 236-832 N666I/F667Y) above, with R425D, A426N, I431N, Y432F counted along it
T2 sequence (P00582 324-928 R755D/S756N/A759T/I760F/N761I/F762Y/L764F/I765L): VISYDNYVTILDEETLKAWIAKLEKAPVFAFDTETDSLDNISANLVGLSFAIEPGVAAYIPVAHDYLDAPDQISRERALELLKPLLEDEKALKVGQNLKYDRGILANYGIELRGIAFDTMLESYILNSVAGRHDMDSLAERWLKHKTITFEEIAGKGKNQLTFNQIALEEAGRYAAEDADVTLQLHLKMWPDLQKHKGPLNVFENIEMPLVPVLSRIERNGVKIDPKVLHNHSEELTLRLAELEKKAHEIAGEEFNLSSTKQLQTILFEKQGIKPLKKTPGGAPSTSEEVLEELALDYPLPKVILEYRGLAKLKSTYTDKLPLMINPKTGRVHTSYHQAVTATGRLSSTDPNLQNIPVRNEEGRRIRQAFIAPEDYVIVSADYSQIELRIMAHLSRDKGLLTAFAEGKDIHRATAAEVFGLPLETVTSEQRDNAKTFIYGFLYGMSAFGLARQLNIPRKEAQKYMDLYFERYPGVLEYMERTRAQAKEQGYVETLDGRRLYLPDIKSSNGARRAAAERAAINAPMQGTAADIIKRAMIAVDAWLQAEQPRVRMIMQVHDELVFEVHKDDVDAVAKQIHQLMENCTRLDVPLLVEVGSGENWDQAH

With `Nc1ncnc2c1ncn2[C@H]1CC[C@@H](COP(=O)(O)OP(=O)(O)OP(=O)(O)O)O1` [ddATP], the “discrimination against ddATP” value in experiment [1] (in the presence of manganese) is 3.9 fold; in experiment [1] (magnesium) it was 550 fold.

With `Cc1cn([C@H]2CC[C@@H](COP(=O)(O)OP(=O)(O)OP(=O)(O)O)O2)c(=O)[nH]c1=O` [ddTTP], the “ddNTP Discrimination” value was “Low” in experiment [2]; “Low” in experiment [3]; “High” in experiment [4]; “Low” in [5]; “High” in experiment [6]; “High” in experiment [7] (renatured enzyme in gel, 1.5 µM 4dNTPs with or without 30 µM ddTTP, 37 °C 4 hr). Moreover, the “ddNTP Discrimination” value in experiment [8] was “High”; in [9], “Low”; in experiment [10] it was “Low”; in experiment [11], “High”. In addition, the “intensity of the bands in the presence versus the absence of ddTTP” value in [7] (30 µM ddTTP (20-fold molar excess over dTTP), 1.5 µM 4dNTPs, within a factor of two) is reported as “approximately the same intensity”.

On to `Nc1nc2c(ncn2[C@H]2CC[C@@H](COP(=O)(O)OP(=O)(O)OP(=O)(O)O)O2)c(=O)[nH]1` [ddGTP], for which the “ddGTP required to obtain same extent of inhibition” value in [12] was “about 10 times more”.
